The numbers were not newly measured in patent publication US20060292214A1, “Nanoparticulate acetaminophen formulations” (Elan Pharma International Limited, priority 2005, published 2006), which cites them from elsewhere.

In the case of `CC(=O)Nc1ccc(O)cc1` [acetaminophen, 4′-hydroxyacetanilide], the solubility in water result is reported as “practically insoluble in water”.
